Test results from patent US10011591B2, “Crystalline form of afatinib dimaleate” (Sun Pharmaceutical Industries Limited, priority 2014, dated 2018).

Assay: Storage stability towards polymorphic conversion, triple layer package
Assay type: physicochemical
Conditions: 25° C. ±2° C. and 60% ±5% relative humidity for two months under triple layer package
Source text: The term “triple layer package,” as used herein, refers to the afatinib dimaleate being packed in a low density polyethylene (LDPE) pouch, then inserted and heat sealed under vacuum in a bag with a mixture of polyester/LDPE with silica sachet as a desiccant, and then further inserted and heat sealed under vacuum into an outer bag with a mixture of polyester film/aluminum foil/polyester LDPE.

CN(C)C/C=C/C(=O)Nc1cc2c(Nc3ccc(F)c(Cl)c3)ncnc2cc1O[C@H]1CCOC1.O=C(O)/C=C\C(=O)O.O=C(O)/C=C\C(=O)O [crystalline Form I of afatinib dimaleate, 2-butenamide, N-[4-[(3-chloro-4-fluorophenyl)amino]-7-[[(3S)-tetrahydro-3-furanyl]oxy]-6-quinazolinyl]-4-(dimethylamino)-,(2E)-, (2Z)-2-butenedioate (1:2)]
polymorphic form stability on storage (conversion to any other form): not converted to any other form of afatinib dimaleate
